Where two headings read alike, the source gives them in different places. Positions of bridges follow the written chain, without caps; N, C: chain ends. Non-standard residues stand in square brackets, D forms with d. Residues, ends and D or L forms follow the SMILES beside them.
Assay: Biodistribution in B16/F1 melanoma-bearing C57 mice
Assay type: in vivo
Conditions: female, C57, mouse, iv, total radioactivity
Experimental: All the animal studies were conducted in compliance with Institutional Animal Care and Use Committee approval. The pharmacokinetics of ^99mTc-RGD-Lys-(Arg^11)CCMSH was determined in B16/F1 melanoma-bearing C57 female mice (Harlan, Indianapolis, Ind.). C57 mice were subcutaneously inoculated on the right flank with 1×10^6 B16/F1 cells. The weight of tumors reached approximately 0.2 g 10 days post cell inoculation. Each melanoma-bearing mouse was injected with 0.037 MBq of ^99mTc-RGD-Lys-(Arg^11)CCMSH via the tail vein. Groups of 5 mice were sacrificed at 0.5, 2, 4 and 24 h post-injection, and tumors and organs of interest were harvested, weighed and counted. Blood values were taken as 6.5% of the whole-body weight. The MC1 receptor specificity of the tumor uptake was determined at 2 h post-injection by co-injecting ^99mTc-RGD-Lys-(Arg^11)CCMSH with 10 μg (6.1 nmol) of unlabeled NDP-MSH, a linear α-MSH peptide analogue with picomolar affinity for the MC1 receptors present on murine melanoma cells. The co-injection of 3.5 μg (6.1 nmol) of RGD peptide was performed to determine the αvβ3 integrin specificity of the tumor uptake 2 h post-injection. Statistical analysis was performed using the Student's t-test for unpaired data.
All the animal studies were conducted in compliance with Institutional Animal Care and Use Committee approval. The pharmacokinetics of ^99mTc-RGD-Arg-(Arg^11)CCMSH was determined in B16/F1 melanoma-bearing C57 female mice (Harlan, Indianapolis, Ind.). C57 mice were subcutaneously inoculated on the right flank with 1×10^6 B16/F1 cells. The weight of tumors reached approximately 0.2 g 10 days post cell inoculation. Each melanoma-bearing mouse was injected with 0.037 MBq of ^99mTc-RGD-Arg-(Arg^11)CCMSH via the tail vein. Groups of 5 mice were sacrificed at 0.5, 2, 4 and 24 h post-injection, and tumors and organs of interest were harvested, weighed and counted. Blood values were taken as 6.5% of the whole-body weight. The MC1 receptor specificity of the tumor uptake was determined at 2 h post-injection by co-injecting ^99mTc-RGD-Arg-(Arg^11)CCMSH with 10 μg (6.1 nmol) of unlabeled NDP-MSH. The co-injection of 3.5 μg (6.1 nmol) of RGD peptide was performed to determine the αvβ3 integrin specificity of the tumor uptake at 2 h post-injection.

Compound `CC(C)[C@H](NC(=O)[C@@H]1CCCN1C(=O)[C@H](CCCNC(=N)N)NC(=O)[C@H](CS)NC(=O)[C@H](Cc1c[nH]c2ccccc12)NC(=O)[C@H](CCCNC(=N)N)NC(=O)[C@@H](Cc1ccccc1)NC(=O)[C@H](Cc1c[nH]cn1)NC(=O)[C@H](CCC(=O)O)NC(=O)[C@H](CS)NC(=O)[C@H](CS)NC(=O)[C@H](CCCNC(=N)N)NC(=O)[C@@H]1CC(=O)N[C@@H](CCCNC(=N)N)C(=O)NCC(=O)N[C@@H](CC(=O)O)C(=O)N[C@H](Cc2ccc(O)cc2)C(=O)N1)C(N)=O` [^99mTc-RGD-Arg-(Arg^11)CCMSH, metal not drawn] (RGD[dY]DRCCEH[dF]RWCRPV-NH2; lactam N-5) has a tissue uptake at 2 h (skin, 0.037 MBq, 2 h post-injection, read-out: Skin, Percentage Injected Dose/gram) of 1.29 ± 0.32 %ID/g, a tissue uptake at 4 h (skin, 0.037 MBq, 4 h post-injection, read-out: Skin, Percentage Injected Dose/gram) of 0.82 ± 0.22 %ID/g and a tissue uptake at 24 h (skin, 0.037 MBq, 24 h post-injection, read-out: Skin, Percentage Injected Dose/gram) of 0.75 ± 0.13 %ID/g. It also gave a tissue uptake at 2 h (skin, 2 h post-injection, NDP blockade (10 μg NDP-MSH co-injected), read-out: Skin, Percentage Injected Dose/gram) of 1.26 ± 0.14 %ID/g, a tissue uptake at 2 h (skin, 2 h post-injection, RGD blockade (3.5 μg RGD co-injected), read-out: Skin, Percentage Injected Dose/gram) of 0.95 ± 0.38 %ID/g and a tissue uptake at 0.5 h (spleen, 0.037 MBq, 0.5 h post-injection, read-out: Spleen, Percentage Injected Dose/gram) of 2.73 ± 0.8 %ID/g. It also gave a tissue uptake at 2 h (spleen, 0.037 MBq, 2 h post-injection, read-out: Spleen, Percentage Injected Dose/gram) of 1.17 ± 0.57 %ID/g, a tissue uptake at 4 h (spleen, 0.037 MBq, 4 h post-injection, read-out: Spleen, Percentage Injected Dose/gram) of 1.75 ± 0.55 %ID/g and a tissue uptake at 24 h (spleen, 0.037 MBq, 24 h post-injection, read-out: Spleen, Percentage Injected Dose/gram) of 1.45 ± 0.37 %ID/g. The tissue uptake at 2 h (spleen, 2 h post-injection, NDP blockade (10 μg NDP-MSH co-injected), read-out: Spleen, Percentage Injected Dose/gram) was 1.53 ± 0.12 %ID/g, the tissue uptake at 2 h (spleen, 2 h post-injection, RGD blockade (3.5 μg RGD co-injected), read-out: Spleen, Percentage Injected Dose/gram) was 0.67 ± 0.38 %ID/g and the tissue uptake at 0.5 h (stomach, 0.037 MBq, 0.5 h post-injection, read-out: Stomach, Percentage Injected Dose/gram) was 4.3 ± 1.78 %ID/g. For the same compound, the tissue uptake at 2 h (stomach, 0.037 MBq, 2 h post-injection, read-out: Stomach, Percentage Injected Dose/gram) was 2.75 ± 1.71 %ID/g, the tissue uptake at 4 h (stomach, 0.037 MBq, 4 h post-injection, read-out: Stomach, Percentage Injected Dose/gram) was 3.44 ± 0.83 %ID/g and the tissue uptake at 24 h (stomach, 0.037 MBq, 24 h post-injection, read-out: Stomach, Percentage Injected Dose/gram) was 0.47 ± 0.17 %ID/g. For the same compound, the tissue uptake at 2 h (stomach, 2 h post-injection, NDP blockade (10 μg NDP-MSH co-injected), read-out: Stomach, Percentage Injected Dose/gram) was 2.4 ± 0.49 %ID/g, the tissue uptake at 2 h (stomach, 2 h post-injection, RGD blockade (3.5 μg RGD co-injected), read-out: Stomach, Percentage Injected Dose/gram) was 2.03 ± 1.39 %ID/g and the Fold change in tumor/kidney uptake ratio versus ^99mTc-RGD-Lys-(Arg^11)CCMSH at 0.5 h (tumor and kidneys, 0.037 MBq, 0.5 h post-injection, read-out: Tumor/kidney uptake ratio, times that of ^99mTc-RGD-Lys-(Arg^11)CCMSH) was 2.38. The Fold change in tumor/kidney uptake ratio versus ^99mTc-RGD-Lys-(Arg^11)CCMSH at 2 h (tumor and kidneys, 0.037 MBq, 2 h post-injection, read-out: Tumor/kidney uptake ratio, times that of ^99mTc-RGD-Lys-(Arg^11)CCMSH) was 2.27, the Fold change in tumor/kidney uptake ratio versus ^99mTc-RGD-Lys-(Arg^11)CCMSH at 4 h (tumor and kidneys, 0.037 MBq, 4 h post-injection, read-out: Tumor/kidney uptake ratio, times that of ^99mTc-RGD-Lys-(Arg^11)CCMSH) was 2.44 and the tissue uptake at 0.5 h (tumor, 0.037 MBq, 0.5 h post-injection, read-out: Tumor, Percentage Injected Dose/gram) was 14.1 ± 2.42 %ID/g. It also gave a tissue uptake at 2 h (tumor, 0.037 MBq, 2 h post-injection, read-out: Tumor, Percentage Injected Dose/gram) of 21.4 ± 3.74 %ID/g, a tissue uptake at 4 h (tumor, 0.037 MBq, 4 h post-injection, read-out: Tumor, Percentage Injected Dose/gram) of 16.1 ± 2 %ID/g and a tissue uptake at 24 h (tumor, 0.037 MBq, 24 h post-injection, read-out: Tumor, Percentage Injected Dose/gram) of 6.81 ± 3.71 %ID/g. For the same compound, the tissue uptake at 2 h (tumor, 2 h post-injection, NDP blockade (10 μg NDP-MSH co-injected), read-out: Tumor, Percentage Injected Dose/gram) was 1.96 ± 0.71 %ID/g, the tissue uptake at 2 h (tumor, 2 h post-injection, RGD blockade (3.5 μg RGD co-injected), read-out: Tumor, Percentage Injected Dose/gram) was 16.9 ± 2.69 %ID/g and the tissue to tissue ratio at 0.5 h (tumor/blood, 0.037 MBq, 0.5 h post-injection, read-out: Uptake Ratio Tumor/Blood) was 3.87. The tissue to tissue ratio at 2 h (tumor/blood, 0.037 MBq, 2 h post-injection, read-out: Uptake Ratio Tumor/Blood) was 38.9, the tissue to tissue ratio at 4 h (tumor/blood, 0.037 MBq, 4 h post-injection, read-out: Uptake Ratio Tumor/Blood) was 22.6 and the tissue to tissue ratio at 24 h (tumor/blood, 0.037 MBq, 24 h post-injection, read-out: Uptake Ratio Tumor/Blood) was 28.4. For the same compound, the tissue to tissue ratio at 2 h (tumor/blood, 2 h post-injection, NDP blockade (10 μg NDP-MSH co-injected), read-out: Uptake Ratio Tumor/Blood) was 4.17, the tissue to tissue ratio at 2 h (tumor/blood, 2 h post-injection, RGD blockade (3.5 μg RGD co-injected), read-out: Uptake Ratio Tumor/Blood) was 422 and the tissue to tissue ratio at 0.5 h (tumor/kidneys, 0.037 MBq, 0.5 h post-injection, read-out: Uptake Ratio Tumor/Kidneys) was 0.38. For the same compound, the tissue to tissue ratio at 2 h (tumor/kidneys, 0.037 MBq, 2 h post-injection, read-out: Uptake Ratio Tumor/Kidneys) was 0.5, the tissue to tissue ratio at 4 h (tumor/kidneys, 0.037 MBq, 4 h post-injection, read-out: Uptake Ratio Tumor/Kidneys) was 0.44 and the tissue to tissue ratio at 24 h (tumor/kidneys, 0.037 MBq, 24 h post-injection, read-out: Uptake Ratio Tumor/Kidneys) was 0.42. It also gave a tissue to tissue ratio at 2 h (tumor/kidneys, 2 h post-injection, NDP blockade (10 μg NDP-MSH co-injected), read-out: Uptake Ratio Tumor/Kidneys) of 0.06, a tissue to tissue ratio at 2 h (tumor/kidneys, 2 h post-injection, RGD blockade (3.5 μg RGD co-injected), read-out: Uptake Ratio Tumor/Kidneys) of 0.44 and a tissue to tissue ratio at 0.5 h (tumor/liver, 0.037 MBq, 0.5 h post-injection, read-out: Uptake Ratio Tumor/Liver) of 3.35. The tissue to tissue ratio at 2 h (tumor/liver, 0.037 MBq, 2 h post-injection, read-out: Uptake Ratio Tumor/Liver) was 5.98, the tissue to tissue ratio at 4 h (tumor/liver, 0.037 MBq, 4 h post-injection, read-out: Uptake Ratio Tumor/Liver) was 3.26 and the tissue to tissue ratio at 24 h (tumor/liver, 0.037 MBq, 24 h post-injection, read-out: Uptake Ratio Tumor/Liver) was 3.6. For the same compound, the tissue to tissue ratio at 2 h (tumor/liver, 2 h post-injection, NDP blockade (10 μg NDP-MSH co-injected), read-out: Uptake Ratio Tumor/Liver) was 0.68, the tissue to tissue ratio at 2 h (tumor/liver, 2 h post-injection, RGD blockade (3.5 μg RGD co-injected), read-out: Uptake Ratio Tumor/Liver) was 7.34 and the tissue to tissue ratio at 0.5 h (tumor/lung, 0.037 MBq, 0.5 h post-injection, read-out: Uptake Ratio Tumor/Lung) was 1.87. It also gave a tissue to tissue ratio at 2 h (tumor/lung, 0.037 MBq, 2 h post-injection, read-out: Uptake Ratio Tumor/Lung) of 10.4, a tissue to tissue ratio at 4 h (tumor/lung, 0.037 MBq, 4 h post-injection, read-out: Uptake Ratio Tumor/Lung) of 15.9 and a tissue to tissue ratio at 24 h (tumor/lung, 0.037 MBq, 24 h post-injection, read-out: Uptake Ratio Tumor/Lung) of 8.96. The tissue to tissue ratio at 2 h (tumor/lung, 2 h post-injection, NDP blockade (10 μg NDP-MSH co-injected), read-out: Uptake Ratio Tumor/Lung) was 1.38, the tissue to tissue ratio at 2 h (tumor/lung, 2 h post-injection, RGD blockade (3.5 μg RGD co-injected), read-out: Uptake Ratio Tumor/Lung) was 13.9 and the tissue to tissue ratio at 0.5 h (tumor/muscle, 0.037 MBq, 0.5 h post-injection, read-out: Uptake Ratio Tumor/Muscle) was 7.87. For the same compound, the tissue to tissue ratio at 2 h (tumor/muscle, 0.037 MBq, 2 h post-injection, read-out: Uptake Ratio Tumor/Muscle) was 102, the tissue to tissue ratio at 4 h (tumor/muscle, 0.037 MBq, 4 h post-injection, read-out: Uptake Ratio Tumor/Muscle) was 50.2 and the tissue to tissue ratio at 24 h (tumor/muscle, 0.037 MBq, 24 h post-injection, read-out: Uptake Ratio Tumor/Muscle) was 27.2. For the same compound, the tissue to tissue ratio at 2 h (tumor/muscle, 2 h post-injection, NDP blockade (10 μg NDP-MSH co-injected), read-out: Uptake Ratio Tumor/Muscle) was 3.92, the tissue to tissue ratio at 2 h (tumor/muscle, 2 h post-injection, RGD blockade (3.5 μg RGD co-injected), read-out: Uptake Ratio Tumor/Muscle) was 60.3 and the dose excreted at 0.5 h (urine, 0.037 MBq, 0.5 h post-injection, read-out: Urine, Percent injected dose) was 43.1 ± 5.62%. The dose excreted at 2 h (urine, 0.037 MBq, 2 h post-injection, read-out: Urine, Percent injected dose (cleared through the urinary system)) was 67.8 ± 6.28%, the dose excreted at 4 h (urine, 0.037 MBq, 4 h post-injection, read-out: Urine, Percent injected dose) was 75.1 ± 3.61% and the dose excreted at 24 h (urine, 0.037 MBq, 24 h post-injection, read-out: Urine, Percent injected dose) was 88.3 ± 1.64%. It also gave a dose excreted at 2 h (urine, 2 h post-injection, NDP blockade (10 μg NDP-MSH co-injected), read-out: Urine, Percent injected dose) of 76.8 ± 3.01% and a dose excreted at 2 h (urine, 2 h post-injection, RGD blockade (3.5 μg RGD co-injected), read-out: Urine, Percent injected dose) of 71.8 ± 5.07%.

From US9005575B2, “Arg-Gly-Asp-conjugated alpha-melanocyte stimulating hormone hybrid peptide for use in diagnosing and treating melanoma, including metastatic melanoma and methods related to same” (STC.UNM, priority 2009, dated 2015)
